Patent US6372297B1, “Wood preservative oxathiazines” (Uniroyal Chemical Company, Inc., priority 1993, dated 2002)
Read-outs that look alike come from different tables or passages of the source.

Assays:
Format in all cases: cell-based
Cladosporium resinae = test: Wood preservative efficacy against fungi, agar plate colony diameter
Protocol: (§1) Each plate was inoculated with a spore suspension or with a small piece of agar (1 mm) from the margin of an actively growing colony of the test fungus. The fungi employed are listed below. After incubation at 22° C. and 70% relative humidity during a period long enough to allow significant growth of untreated controls, the diameters of the fungus colonies were measured and scored using the following rating system: 0=free of fungal growth 1=25% of fungal growth compared to untreated 2=50% of fungal growth compared to untreated 3=75% of fungal growth compared to untreated 4=Growth equal to that of untreated The scores measured for wood preservation efficacy of the compounds of this invention are listed in Tables 6a and 6b. In these Tables, the lower numbers are the most preferred species. Cladosporium resinae (syn Hormonocanis resinae, Amorphotheca resinae)

Pseudomonas aeruginosa = test: Wood preservative efficacy against bacteria and yeasts, tryptose agar plates; design: key: 0 = growth equal to control, 1 = growth inhibited, 2 = no growth; conditions: 100 ppm in tryptose agar
Protocol: (§2) Compositions were prepared by dissolving the compounds shown in Table 1 in 50% ethanol and further diluting with sterile distilled water. […] After cooling, the medium was inoculated with the bacteria listed below. After sufficient growth of the untreated cultures, the compounds were evaluated using the following rating system: 0=growth equal to control 1=inhibition of growth by the compound 2=no growth under the influence of the compound. In this Table, the higher numbers are the most preferred species. Pseudomonas aeruginosa (gram neg)

Debaryomyces hansenii = test: as above; design: key: 0 = growth equal to control, 1 = inhibition, 2 = no growth
Protocol: as §2, with “Debaryomyces hansenii (yeast)” for “Pseudomonas aeruginosa (gram neg)”

Coriolus versicolor = test: Wood preservative efficacy against fungi, agar plate colony diameter; conditions: for Score of fungicidal activity, C. VERSICLOR: Test dosage 10 ppm, Table 6A; for Score of fungicidal activity, G. VERSICLOR: Table 6B
Protocol: as §1, with “Coriolus versicolor” for “Cladosporium resinae (syn Hormonocanis resinae, Amorphotheca resinae)”

Pseudomonas alcaligenes = test: Wood preservative efficacy against bacteria and yeasts, tryptose agar plates; design: key: 0 = growth equal to control, 1 = inhibition, 2 = no growth; conditions: 100 ppm in tryptose agar
Protocol: as §2, with “alcaligenes” for “aeruginosa”

Enterobacter aerogenes = test: as above; design: key: 0 = growth equal to control, 1 = inhibition, 2 = no growth
Protocol: as §2, with “Enterobacter aerogenes” for “Pseudomonas aeruginosa”

Coniophora puteana = test: Wood preservative efficacy against fungi, agar plate colony diameter; design: key: 0 = no fungal growth, 1-3 = 25/50/75% of untreated, 4 = equal
Protocol: as §1, with “Coniophora puteana (syn. C. cerebella)” for “Cladosporium resinae (syn Hormonocanis resinae, Amorphotheca resinae)”

[1] = system: molds and blue-stain fungi; test: In vitro activity against molds and blue-stain fungi, poison plate assay (MIC); conditions: malt extract agar, complete inhibition
Summary of the method: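 Poison plate format: compound diluted in sterile water and mixed into malt extract agar, then plates inoculated with each fungus. Growth inhibition scored at each concentration to give the MIC.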

| Compound | Score of fungicidal activity, CL RESINAE (Cladosporium resinae; Test dosage 10 ppm, Table 6A) | Score of bactericidal activity, P. aeruginosa (Pseudomonas aeruginosa) | Score of bactericidal activity, D. hansenii (Debaryomyces hansenii; 10 ppm in tryptose agar) | Score of bactericidal activity, D. hansenii (Debaryomyces hansenii; 100 ppm in tryptose agar) | Score of fungicidal activity, C. VERSICLOR (Coriolus versicolor) | Score of bactericidal activity, P. alcalgenes (Pseudomonas alcaligenes) | Score of bactericidal activity, E. aerogenes (Enterobacter aerogenes; 100 ppm in tryptose agar) | Score of fungicidal activity, C. PUTEANA (Coniophora puteana; Test dosage 10 ppm, Table 6A) | Score of fungicidal activity, CL RESINAE (Cladosporium resinae; 10 ppm, Table 6B) | MIC (ppm) against A. amstelodami [1] | MIC (ppm) against A. versicolor [1] | MIC (ppm) against C. pilifera [1] | MIC (ppm) against F. solani [1] | MIC (ppm) against P. purpurogenum [1] | MIC (ppm) against P. variotii [1] | MIC (ppm) against P. violacea [1] | MIC (ppm) against S. atra [1] | Score of fungicidal activity, G. VERSICLOR (Coriolus versicolor; 10 ppm) | Score of bactericidal activity, E. aerogenes (Enterobacter aerogenes; 10 ppm in tryptose agar) | Score of fungicidal activity, C. PUTEANA (Coniophora puteana; 10 ppm, Table 6B) | other results |
| --- | --- | --- | --- | --- | --- | --- | --- | --- | --- | --- | --- | --- | --- | --- | --- | --- | --- | --- | --- | --- | --- |
| C[S+]1CCON=C1c1ccc(Cl)cc1 (stereo not drawn) [Compound 1] | 2 (50% of growth compared to untreated control) | 0 | 2 | 2 | 0 | 1 | 0 | 2 (50% of growth compared to untreated control) |  |  |  |  |  |  |  |  |  |  |  |  |  |
| CC(=O)c1ccc(C2=NOCC[S+]2[O-])cc1 (stereo not drawn) [Compound 14] | 0 | 1 | 0 | 2 | 2 (50% of growth compared to untreated control) | 1 | 0 | 3 (75% of growth compared to untreated control) |  |  |  |  |  |  |  |  |  |  |  |  |  |
| C[S+]1CCON=C1c1cc(Cl)cc(Cl)c1 (stereo not drawn) [Compound 19] |  | 0 |  |  |  | 0 | 0 |  | 0 | 25 ppm | 25 ppm | 10 ppm | >25 ppm | 25 ppm | 25 ppm | >25 ppm | 25 ppm | 0 | 0 | 3 (75% of growth compared to untreated control) | MIC ([1]; Aspergillus niger, A. niger, read-out: MIC (ppm) against A. niger): 2.5 µg/mL; MIC ([1]; Aureobasidium pullulans, A. pullulans, read-out: MIC (ppm) against A. pullulans): 25 µg/mL; MIC ([1]; Cladosporium cladosporioides, C. cladosporioides, read-out: MIC (ppm) against C. cladosporioides): 25 µg/mL; MIC ([1]; Geotrichum candidum, G. candidum, read-out: MIC (ppm) against G. candidum): > 25 µg/mL; MIC (ppm) against S. entoxylina [1]: 25 ppm; MIC ([1]; Trichoderma viride, T. viride, read-out: MIC (ppm) against T. viride): 25 µg/mL; MIC (ppm) against U. atrum [1]: >25 ppm; Score of fungicidal activity, G. VERSICLOR (Coriolus versicolor; 1 ppm): 2 (50% of growth compared to untreated control) |
| COC(=O)c1cccc(C2=NOCC[S+]2[O-])c1 (stereo not drawn) [Compound 26] |  | 0 |  |  |  | 0 | 0 |  | 4 |  |  |  |  |  |  |  |  | 4 | 0 | 4 |  |
| [O-][S+]1CCON=C1c1cccs1 (stereo not drawn) [Compound 8] | 2 (50% of growth compared to untreated control) | 1 | 2 | 2 | 0 | 2 | 2 | 2 (50% of growth compared to untreated control) |  | 10 ppm | 10 ppm | 5 ppm | 25 ppm | >25 ppm | >25 ppm | 25 ppm | 10 ppm |  |  |  | MIC (ppm) against A. niger ([1]; A. niger): 25 ppm; MIC (ppm) against A. pullulans ([1]; A. pullulans): >25 ppm; MIC (ppm) against C. cladosporioides ([1]; C. cladosporioides): >25 ppm; MIC (ppm) against G. candidum ([1]; G. candidum): >25 ppm; MIC (ppm) against S. entoxylina [1]: 10 ppm; MIC (ppm) against T. viride ([1]; T. viride): >25 ppm; MIC (ppm) against U. atrum [1]: 25 ppm |
| C[S+]1CCON=C1c1ccc(C(F)(F)F)cc1 (stereo not drawn) [Compound 25] |  | 0 |  |  |  | 1 | 0 |  | 0 |  |  |  |  |  |  |  |  | 0 | 0 | 0 | Score of fungicidal activity, G. VERSICLOR (Coriolus versicolor; 1 ppm): 3 (75% of growth compared to untreated control); Score of fungicidal activity, C. PUTEANA (Coniophora puteana; 1 ppm, Table 6B): 2 (50% of growth compared to untreated control) |
| O=S1(=O)CCON=C1c1cccs1 [Compound 34] |  |  |  |  |  |  |  |  |  | 5 ppm | 5 ppm | 2.5 ppm | 25 ppm | 10 ppm | 25 ppm | 25 ppm | 5 ppm |  |  |  | MIC (ppm) against A. niger ([1]; A. niger): 5 ppm; MIC (ppm) against A. pullulans ([1]; A. pullulans): 25 ppm; MIC (ppm) against C. cladosporioides ([1]; C. cladosporioides): 25 ppm; MIC (ppm) against G. candidum ([1]; G. candidum): 25 ppm; MIC (ppm) against S. entoxylina [1]: 5 ppm; MIC (ppm) against T. viride ([1]; T. viride): >25 ppm; MIC (ppm) against U. atrum [1]: 25 ppm |
| CCOc1ccc(C2=NOCC[S+]2C)cc1 (stereo not drawn) [Compound 28] |  | 0 |  |  |  | 0 | 0 |  | 4 |  |  |  |  |  |  |  |  | 3 (75% of growth compared to untreated control) | 0 | 0 |  |
| CCOC(=O)c1ccc(C2=NOCC[S+]2[O-])cc1 (stereo not drawn) [Compound 22] |  | 0 |  |  |  | 1 | 0 |  | 4 |  |  |  |  |  |  |  |  | 2 (50% of growth compared to untreated control) | 0 | 0 | Score of fungicidal activity, C. PUTEANA (Coniophora puteana; 1 ppm, Table 6B): 3 (75% of growth compared to untreated control) |
